Consider 1 compound from ChEMBL document CHEMBL3046147, “Synthesis and Herbicidal Activity of 1-Arylalkyl-3-pyrrolin-2-one Derivatives” (J Pestic Sci, 2000).

Activity calls are given as the source filed them. No cut-off for these calls is given here.

The subject of data set [1] is Echinochloa oryzicola. In words: Herbicidal activity against Echinochloa oryzicola grown in water-drained pot under greenhouse condition assessed as growth inhibition at 500 g /ha measured after 20 days. In kind it is functional, organism-based.
Data set [2] concerns Echinochloa oryzicola. In words: Herbicidal activity against Echinochloa oryzicola grown in water-drained pot under greenhouse condition assessed as growth inhibition at 125 g /ha measured after 33 days. Format: functional, organism-based.
Data set [3] has as its system Echinochloa oryzicola. In words: Herbicidal activity against Echinochloa oryzicola under greenhouse condition assessed as growth inhibition at 1000 g /ha measured after 13 days. In kind it is functional, organism-based.
The subject of data set [4] is Echinochloa oryzicola. In words: Herbicidal activity against Echinochloa oryzicola at 250 g /ha treated at 1.5 to 2-leaf stage measured after 26 days by outdoor concrete pot test. Format: functional, organism-based.
The subject of data set [5] is Echinochloa oryzicola. In words: Herbicidal activity against Echinochloa oryzicola grown in water-drained pot under greenhouse condition assessed as time duration of residual effect at 500 g /ha. In kind it is functional.
In data set [6] the test system is Pontederia vaginalis. Description: Herbicidal activity against Monochoria vaginalis at 500 g /ha treated at 1.5 to 2-leaf stage measured after 26 days by outdoor concrete pot test. In kind it is functional, organism-based.
The test system of data set [7] is Echinochloa oryzicola. In words: Herbicidal activity against Echinochloa oryzicola grown in water-drained pot under greenhouse condition assessed as growth inhibition at 125 g /ha measured after 13 days. In kind it is functional, organism-based.
Data set [8] relates to Echinochloa oryzicola. In words: Herbicidal activity against Echinochloa oryzicola under greenhouse condition assessed as growth inhibition at 125 g /ha measured after 42 days. In kind it is functional, organism-based.
Data set [9] relates to Echinochloa oryzicola. Description: Herbicidal activity against Echinochloa oryzicola grown in water-drained pot under greenhouse condition assessed as growth inhibition at 500 g /ha measured after 27 days. Format: functional, organism-based.
The test system of data set [10] is Schoenoplectiella juncoides. Description: Herbicidal activity against Schoenoplectiella juncoides at 1000 g /ha treated at 1.5 to 2.1-leaf stage measured after 26 days by outdoor concrete pot test. Format: functional, organism-based.
In the next data set the test system is Rotala indica. Description: Herbicidal activity against Rotala indica at 1000 g /ha treated at 1 to 2-pairs of leaf stage measured after 26 days by outdoor concrete pot test. In kind it is functional, organism-based.
Data set [11] deals with Echinochloa oryzicola. Description: Herbicidal activity against Echinochloa oryzicola under greenhouse condition assessed as growth inhibition at 250 g /ha measured after 6 days. Format: functional, organism-based.
Data set [12] has as its system Echinochloa oryzicola. In words: Herbicidal activity against Echinochloa oryzicola grown in water-drained pot under greenhouse condition assessed as growth inhibition at 500 g /ha measured after 13 days. In kind it is functional, organism-based.
The next data set concerns Cyperus serotinus. Description: Herbicidal activity against Cyperus serotinus at 1000 g /ha treated at 1 to 1.5-leaf stage measured after 26 days by outdoor concrete pot test. Format: functional, organism-based.
Another data set concerns Oryza sativa. Description: Phytotoxicity against two-leaf stage Oryza sativa cv. Nihonbare (rice) planted 3 cm depth measured after […]. To be noted: in vivo. Format: organism-based.
Data set [13] concerns Echinochloa oryzicola. In words: Pre-emergence herbicide activity against Echinochloa oryzicola under greenhouse condition measured after 14 to 20 days. Format: functional.
In data set [14] the test system is Echinochloa oryzicola. In words: Herbicidal activity against Echinochloa oryzicola under greenhouse condition assessed as growth inhibition at 125 g /ha measured after 20 days. Format: functional, organism-based.
The test system of data set [15] is Echinochloa oryzicola. In words: Herbicidal activity against Echinochloa oryzicola grown in water-drained pot under greenhouse condition assessed as growth inhibition at 500 g /ha measured after 42 days. Format: functional, organism-based.
In the next data set the test system is Sagittaria pygmaea. Description: Herbicidal activity against Sagittaria pygmaea at 500 g /ha treated at 0.5 to 1-leaf stage measured after 26 days by outdoor concrete pot test. In kind it is functional, organism-based.
Data set [16] relates to Echinochloa oryzicola. Description: Herbicidal activity against Echinochloa oryzicola under greenhouse condition assessed as growth inhibition at 500 g /ha measured after 6 days. Format: functional, organism-based.
Data set [17] concerns Pontederia vaginalis. In words: Herbicidal activity against Monochoria vaginalis at 1000 g /ha treated at 1.5 to 2-leaf stage measured after 26 days by outdoor concrete pot test. In kind it is functional, organism-based.
The test system of data set [18] is Echinochloa oryzicola. Description: Herbicidal activity against Echinochloa oryzicola under greenhouse condition assessed as growth inhibition at 1000 g /ha measured after 42 days. In kind it is functional, organism-based.
Data set [19] concerns Echinochloa oryzicola. In words: Herbicidal activity against Echinochloa oryzicola under greenhouse condition assessed as growth inhibition at 1000 g /ha measured after 27 days. Format: functional, organism-based.
Data set [20] deals with Echinochloa oryzicola. In words: Herbicidal activity against Echinochloa oryzicola under greenhouse condition assessed as growth inhibition at 1000 g /ha measured after 20 days. In kind it is functional, organism-based.

As for `CC1=C(c2ccccc2)C(=O)N(C(C)(C)c2nc3ccccc3s2)C1`, the “growth inhibition (GI)” value in the data set on Echinochloa oryzicola [1], in the data set with Echinochloa oryzicola [3], in the data set on Echinochloa oryzicola [4], in the data set with Pontederia vaginalis [6], in the data set with Echinochloa oryzicola [7] and in the data set on Echinochloa oryzicola [8] was “Active” throughout. Besides, the “growth inhibition (GI)” value in the data set with Echinochloa oryzicola [9], in the data set on Rotala indica, in the data set on Echinochloa oryzicola [11], in the data set on Echinochloa oryzicola [12], in the data set with Cyperus serotinus and in the data set on Echinochloa oryzicola [14] was “Active” in each case. Also, the “growth inhibition (GI)” value in the data set with Sagittaria pygmaea, with Echinochloa oryzicola [16], in the data set on Pontederia vaginalis [17], with Echinochloa oryzicola [18], in the data set on Echinochloa oryzicola [19] and in the data set with Echinochloa oryzicola [20] was “Active” throughout. Further, the “growth inhibition (GI)” value (with Echinochloa oryzicola [2]; in data set [10]; with Echinochloa oryzicola [15]) was “inactive” each time. In addition, the Time with Echinochloa oryzicola [5] was >42 days. The compound further yielded an MTD with Oryza sativa of 10 g/acre. This compound came in with an MED in the data set on Echinochloa oryzicola [13] of 0.313 g/acre.
